Measured values as given in US6197982A, “Vitamin D analogues” (priority 1996, dated 2001).
“Also recorded” adds a separate entry of the source. Read-outs that look alike come from different tables or passages of the source. One block for each molecule: values may come before it.

Assays:
[1] = system: HaCaT, human skin keratinocyte cell line; test: HaCaT antiproliferative assay, 3H-thymidine uptake; assay type: cell-based; details: for inhibition at 0.1 µM: Homo sapiens, HaCaT, read-out: HaCaT, max. % (maximal inhibition of the cell proliferation); for inhibition at 0.1 µM / maximal inhibition in HaCaT, in words: at 10^-7 M; for maximal inhibition in HaCaT, in words / potency in the HaCaT-assay (psoriasis model), in words: compared with 1,25(OH)2 D3; for HaCaT rel. (ratio between the IC50 value of 1,25(OH)2 D3 and the IC50 value of the compound): relative to 1,25(OH)2 D3, 3H-thymidine incorporation, >1 = more active
Source text: (§1) .sunburst. The values are relative to 1,25 (OH)2 D3; a value
(§2) H-thymidine incorporation compared to controls.
.cndot. "HaCaT, max %" indicates the maximal inhibition of the cell
proliferation (maximal efficacy) which is obtainable at the higher
concentration of 10^-7 M of a compound.

mouse spleen lymphocytes = test: mixed lymphocyte reaction (MLR), 3H-thymidine incorporation; assay type: cell-based, mouse (BALB/c and CB6F1); details: for immunosuppressive activity (MLR), in words: also in comparison with prior art reference compounds; for MLR rel. (ratio between the IC50 value of 1,25(OH)2 D3 and the IC50 value of the compound): relative to 1,25(OH)2 D3, 72 hours, >1 = more active
Protocol: The mixed cultures of lymphocytes are incubated with the test compounds for 72 hours. Cellular DNA-synthesis is assessed by the incorporation of ^3 H-thymidine in the D
as §1, §2

[2] = calcemic activity in rats in vivo; set-up: species or system rat; key to Calc. rel. (calcemic activity relative to 1,25(OH)2 D3): calcemic activity relative to 1,25(OH)2D3 (=1); details: for calcemic activity, in words: compared with 1,25(OH)2 D3; for Calc. rel. (calcemic activity relative to 1,25(OH)2 D3): rats in vivo, low values preferred
Protocol: The calcemic activity of the compounds was determined in rats in vivo, as previously described. In table 1, column "Calc., rel.", the calcemic activities of selected compounds (relative to 1,25(OH)2 D3) are listed; as mentioned, low values for the compounds of the present invention are ordinarily preferred.
as §1

[3] = system: type I diabetes, non-obese diabetic (NOD) mouse; details: cited from earlier work
immune functions = details: in vivo; cited from earlier work
calcium metabolism = details: cited from earlier work; for activity on calcium metabolism: in vivo
B-lymphocytes = details: in vitro; cited from earlier work
cells = details: cited from earlier work
monocytes/macrophages = details: cited from earlier work
angiogenesis = details: cited from earlier work
Cytotoxic T-cells = details: cited from earlier work
[4] = system: regulatory/suppressor T-lymphocytes; details: cited from earlier work
activated T-lymphocytes = details: cited from earlier work
HL-60 cancer cells = details: relative to 1,25(OH)2 D3; cited from earlier work
receptor = details: relative to 1,25(OH)2 D3; cited from earlier work
skin allograft = details: mice; cited from earlier work
breast cancer cells [5] = details: in vitro; cited from earlier work
breast cancer cells [6] = details: cited from earlier work
transcriptional activity = details: compared to 1,25(OH)2 D3; cited from earlier work
[7] = system: autoimmune disease recurrence in NOD mice; details: cited from earlier work
psoriasis = details: cited from earlier work
[8] = in vivo; cited from earlier work
graft rejection = details: cited from earlier work

MLR rel. (ratio between the IC50 value of 1,25(OH)2 D3 and the IC50 value of the compound) (mouse spleen lymphocytes): 13
Calc. rel. (calcemic activity relative to 1,25(OH)2 D3) [2]: 8.2
SMILES: C=C1/C(=C\C=C2/CCC[C@]3(C)[C@@H]([C@@H](C)C(O)C#CC(O)(CC)CC)CC[C@@H]23)C[C@@H](O)C[C@@H]1O (some centres unmarked) [GS1535]
inhibition at 0.1 µM [1]: 82%
HaCaT rel. (ratio between the IC50 value of 1,25(OH)2 D3 and the IC50 value of the compound) [1]: 313

MLR rel. (ratio between the IC50 value of 1,25(OH)2 D3 and the IC50 value of the compound) (mouse spleen lymphocytes): 36
Calc. rel. (calcemic activity relative to 1,25(OH)2 D3) [2]: 1.2
SMILES: C=C1/C(=C\C=C2/CCC[C@]3(C)[C@@H]([C@@H](C)C(C#CC(O)(CC)CC)OCC)CC[C@@H]23)C[C@@H](O)C[C@@H]1O (some centres unmarked) [GS1720]
inhibition at 0.1 µM [1]: 70%
HaCaT rel. (ratio between the IC50 value of 1,25(OH)2 D3 and the IC50 value of the compound) [1]: 3.9

MLR rel. (ratio between the IC50 value of 1,25(OH)2 D3 and the IC50 value of the compound) (mouse spleen lymphocytes): 150
Calc. rel. (calcemic activity relative to 1,25(OH)2 D3) [2]: 12
SMILES: C=C1/C(=C\C=C2/CCC[C@]3(C)[C@@H]([C@@H](C)C(C#CC(O)(CC)CC)OC)CC[C@@H]23)C[C@@H](O)C[C@@H]1O (some centres unmarked) [GS1725]
inhibition at 0.1 µM [1]: 96%
HaCaT rel. (ratio between the IC50 value of 1,25(OH)2 D3 and the IC50 value of the compound) [1]: 4.4

MLR rel. (ratio between the IC50 value of 1,25(OH)2 D3 and the IC50 value of the compound) (mouse spleen lymphocytes): 0.6
Calc. rel. (calcemic activity relative to 1,25(OH)2 D3) [2]: 0.005
SMILES: C=C1/C(=C\C=C2/CCC[C@]3(C)[C@@H]([C@H](C)/C=C/[C@@H](O)C4CC4)CC[C@@H]23)C[C@@H](O)C[C@@H]1O [MC903]
inhibition at 0.1 µM [1]: 78%
HaCaT rel. (ratio between the IC50 value of 1,25(OH)2 D3 and the IC50 value of the compound) [1]: 1.8
activity on calcium metabolism (calcium metabolism): only moderate activity on calcium metabolism in vivo
activity on calcium metabolism (calcium metabolism; listed as Calcipotriol): low in vivo activity on calcium metabolism
hypercalcemia in patients (psoriasis; psoriasis patients): without hypercalcemia
improvement, % of the patients (psoriasis; without hypercalcemia, psoriasis): 70-80%
metabolism [8]: rapid metabolism

Continued, molecule first:

SMILES: C=C1/C(=C\C=C2/CCC[C@]3(C)[C@@H]([C@@H](C)C(CCC(C)(C)O)OC)CC[C@@H]23)C[C@@H](O)C[C@@H]1O (single isomer, unassigned) [Compound 101]
inhibition at 0.1 µM [1]: 92%
maximal inhibition in HaCaT, in words [1]: the same, or higher, maximal inhibition at 10^-7 M as 1,25(OH)2 D3
potency in the HaCaT-assay (psoriasis model), in words [1]: considerably more potent than 1,25(OH)2 D3
HaCaT rel. (ratio between the IC50 value of 1,25(OH)2 D3 and the IC50 value of the compound) [1]: 28
immunosuppressive activity (MLR), in words (mouse spleen lymphocytes): potent effects
MLR rel. (ratio between the IC50 value of 1,25(OH)2 D3 and the IC50 value of the compound) (mouse spleen lymphocytes): 175
calcemic activity, in words [2]: only about half as large as that of 1,25(OH)2 D3
Calc. rel. (calcemic activity relative to 1,25(OH)2 D3) [2]: 0.45

SMILES: C=C1/C(=C\C=C2/CCC[C@]3(C)[C@@H]([C@@H](C)C(CCC(C)(C)O)OCC)CC[C@@H]23)C[C@@H](O)C[C@@H]1O (single isomer, unassigned) [Compound 102]
inhibition at 0.1 µM [1]: 85%
maximal inhibition in HaCaT, in words [1]: the same, or higher, maximal inhibition at 10^-7 M as 1,25(OH)2 D3
potency in the HaCaT-assay (psoriasis model), in words [1]: considerably more potent than 1,25(OH)2 D3
HaCaT rel. (ratio between the IC50 value of 1,25(OH)2 D3 and the IC50 value of the compound) [1]: 137
immunosuppressive activity (MLR), in words (mouse spleen lymphocytes): potent effects
MLR rel. (ratio between the IC50 value of 1,25(OH)2 D3 and the IC50 value of the compound) (mouse spleen lymphocytes): 161
calcemic activity, in words [2]: only about half as large as that of 1,25(OH)2 D3
Calc. rel. (calcemic activity relative to 1,25(OH)2 D3) [2]: 0.50

SMILES: C=C1/C(=C\C=C2/CCC[C@]3(C)[C@@H]([C@H](C)CCCC(C)(C)O)CC[C@@H]23)C[C@@H](O)C[C@@H]1O [1,25(OH)2 D3, 1α,25-dihydroxy-vitamin D3]
immunoregulation in type I diabetes [3]: effective immunomodulator
immune functions in vitamin D deficiency states (immune functions): restores normal immune functions in vitamin D deficiency states in vivo
inhibition at 0.1 µM [1]: 85%
HaCaT rel. (ratio between the IC50 value of 1,25(OH)2 D3 and the IC50 value of the compound) [1]: 1
hypercalcemia (calcium metabolism; high doses necessary for therapeutic effect on e.g. psoriasis, cancer, immunological disorders): serious side effects due to hypercalcemia
MLR rel. (ratio between the IC50 value of 1,25(OH)2 D3 and the IC50 value of the compound) (mouse spleen lymphocytes): 1
formation of antibodies (IgM and IgG) from B-lymphocytes (B-lymphocytes): indirect inhibition of the formation of antibodies (IgM and IgG)
Calc. rel. (calcemic activity relative to 1,25(OH)2 D3) [2]: 1
differentiation of cells (cells): stimulate the differentiation of cells
excessive cell proliferation (cells): inhibit excessive cell proliferation
production/release of cytokines such as IL-1 and TNF (monocytes/macrophages; antigen-stimulated monocytes/macrophages): downregulation
antibacterial activity of monocytes/macrophages (monocytes/macrophages): enhances their antibacterial activity
differentiation of monocytes towards macrophages (monocytes/macrophages): stimulates the differentiation of monocytes towards macrophages
angiogenesis (angiogenesis): inhibition of angiogenesis
cytotoxic T-cells (Cytotoxic T-cells): inhibited
regulatory/suppressor T-lymphocytes [4]: stimulated
cytokines IL-2 and INF-γ (activated T-lymphocytes): down-regulation of cytokines IL-2 and INF-γ
proliferation of activated T-lymphocytes (activated T-lymphocytes): inhibited

SMILES: C=C1/C(=C\C=C2/CCC[C@]3(C)[C@@H]([C@H](C)[C@H](CCC(C)(C)O)OC)CC[C@@H]23)C[C@@H](O)C[C@@H]1O [22S-methoxy-1,25(OH)2 D3]
potency in inducing differentiation of HL-60 cancer cells, times that of 1,25(OH)2 D3 (HL-60 cancer cells): 0.25 times
receptor binding affinity, times that of 1,25(OH)2 D3 (receptor): 0.03 times

SMILES: C=C1/C(=C\C=C2/CCC[C@]3(C)[C@@H]([C@@H](C)C(O)CCC(C)(C)O)CC[C@@H]23)C[C@@H](O)C[C@@H]1O (some centres unmarked) [CB1297]
inhibition at 0.1 µM [1]: 75%
HaCaT rel. (ratio between the IC50 value of 1,25(OH)2 D3 and the IC50 value of the compound) [1]: 45
MLR rel. (ratio between the IC50 value of 1,25(OH)2 D3 and the IC50 value of the compound) (mouse spleen lymphocytes): 12

SMILES: C=C1/C(=C\C=C2/CCC[C@]3(C)[C@@H]([C@H](C)CCCCC(O)(CC)CC)CC[C@@H]23)C[C@@H](O)C[C@@H]1O [CB 966]
skin allograft survival / immunosuppression (skin allograft): prolonged skin allograft survival in mice

SMILES: C=C1/C(=C\C=C2/CCC[C@]3(C)[C@@H]([C@H](C)/C=C/C=C/C(O)(CC)CC)CC[C@@H]23)C[C@@H](O)C[C@@H]1O [EB 1089]
growth of breast cancer cells (breast cancer cells [5]): inhibits the growth of breast cancer cells in vitro
growth of breast cancer cells (breast cancer cells [6]): inhibits the growth of breast cancer cells in vitro and in vivo
selectivity between the anti-cancer and the calcemic effects (breast cancer cells [6]; in vivo): definite selectivity between the anti-cancer and the calcemic effects in vivo

SMILES: C=C1/C(=C\C=C2/CCC[C@]3(C)[C@@H]([C@@H](C)OCCCC(O)(CC)CC)CC[C@@H]23)C[C@@H](O)C[C@@H]1O [KH 1060, 20-epi-22-oxa-25,26,27-trihomo-1,25-(OH)2 D3]
effect on calcium and bone [3]: only slight
immunoregulation in type I diabetes [3]: effective immunoregulator
hypercalcemia / serum calcium (skin allograft): induced hypercalcemia in the highest, and most effective, dose
skin allograft survival / immunosuppression (skin allograft): prolonged skin allograft survival in mice; also recorded: most potent immunosuppressor
transcriptional activity (transcriptional activity): enhanced transcriptional activity
toxicity [7]: toxic in the most effective high doses
delaying autoimmune disease recurrence ([7]; islet transplantation): very effective in delaying autoimmune disease recurrence

SMILES: C=C1/C(=C\C=C2/CCC[C@]3(C)[C@@H]([C@@H](C)CCCC(C)(C)O)CC[C@@H]23)C[C@@H](O)C[C@@H]1O [MC1288, 20-epi-1,25(OH)2 D3]
hypercalcemia / serum calcium (skin allograft): less hypercalcemic than KH 1060
skin allograft survival / immunosuppression (skin allograft): very effective
inhibition at 0.1 µM [1]: 76%
HaCaT rel. (ratio between the IC50 value of 1,25(OH)2 D3 and the IC50 value of the compound) [1]: 43
immunosuppression / prevention of graft rejection (graft rejection; rat heart and small bowel transplantation): effective as an immunosuppressant in a rat model of heart and small bowel transplantations, preventing graft rejection; also recorded: valuable immunosuppressive activity in animal transplantation experiments
serum calcium level (graft rejection; rat transplantation model): moderately increased
MLR rel. (ratio between the IC50 value of 1,25(OH)2 D3 and the IC50 value of the compound) (mouse spleen lymphocytes): 150
Calc. rel. (calcemic activity relative to 1,25(OH)2 D3) [2]: 2.5
transcriptional activity (transcriptional activity): enhanced transcriptional activity
